From ChEMBL document CHEMBL1955715 (Bioorg Med Chem Lett, 2012)
The source made the active and inactive calls. The rule behind the calls is not given here.

Legend:
Rattus norvegicus [1] = experiment: Wake promoting activity in EEG/EMG Sprague-Dawley rat model assessed as total time awake at 100 mg/kg, ip measured up to 3 hrs (reference value: 65 +/- 9 mins); conditions: route intraperitoneal
CYP3A4 = CYP3A4 (Homo sapiens, UniProt P08684); experiment: Inhibition of CYP3A4 at 10 uM; format: ADME
[2] = target: T1, Sodium-dependent dopamine transporter (Rattus norvegicus, UniProt P23977); experiment: Inhibition of rat DAT
T1 sequence (P23977 whole entry): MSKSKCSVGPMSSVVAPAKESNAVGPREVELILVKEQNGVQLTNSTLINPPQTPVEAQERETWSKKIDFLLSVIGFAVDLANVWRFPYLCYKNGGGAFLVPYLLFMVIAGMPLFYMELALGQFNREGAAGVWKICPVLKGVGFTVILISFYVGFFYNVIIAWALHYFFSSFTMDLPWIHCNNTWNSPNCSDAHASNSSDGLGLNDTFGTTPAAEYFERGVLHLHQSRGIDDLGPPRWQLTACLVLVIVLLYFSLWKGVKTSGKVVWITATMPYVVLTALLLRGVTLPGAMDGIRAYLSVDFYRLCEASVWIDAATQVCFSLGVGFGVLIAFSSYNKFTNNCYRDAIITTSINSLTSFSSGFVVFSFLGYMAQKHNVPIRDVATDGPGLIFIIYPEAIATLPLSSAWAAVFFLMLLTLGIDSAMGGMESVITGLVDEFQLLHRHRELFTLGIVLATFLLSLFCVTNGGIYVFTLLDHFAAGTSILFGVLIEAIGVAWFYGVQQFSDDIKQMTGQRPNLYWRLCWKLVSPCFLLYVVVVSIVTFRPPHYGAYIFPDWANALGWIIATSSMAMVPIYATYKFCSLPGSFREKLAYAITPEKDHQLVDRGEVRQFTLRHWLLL

Rattus norvegicus [3] = experiment: Wake promoting activity in po dosed EEG/EMG Sprague-Dawley rat model assessed as slow wave sleep and rapid eye movement sleep; format: functional, organism-based
[4] = Solubility of the compound in water at pH 7.4; format: physicochemical
Transporter = Transporter (Rattus norvegicus, UniProt Q63380); experiment: Inhibition of rat NET-mediated norepinephrine reuptake
Chain of Transporter (Q63380 whole entry): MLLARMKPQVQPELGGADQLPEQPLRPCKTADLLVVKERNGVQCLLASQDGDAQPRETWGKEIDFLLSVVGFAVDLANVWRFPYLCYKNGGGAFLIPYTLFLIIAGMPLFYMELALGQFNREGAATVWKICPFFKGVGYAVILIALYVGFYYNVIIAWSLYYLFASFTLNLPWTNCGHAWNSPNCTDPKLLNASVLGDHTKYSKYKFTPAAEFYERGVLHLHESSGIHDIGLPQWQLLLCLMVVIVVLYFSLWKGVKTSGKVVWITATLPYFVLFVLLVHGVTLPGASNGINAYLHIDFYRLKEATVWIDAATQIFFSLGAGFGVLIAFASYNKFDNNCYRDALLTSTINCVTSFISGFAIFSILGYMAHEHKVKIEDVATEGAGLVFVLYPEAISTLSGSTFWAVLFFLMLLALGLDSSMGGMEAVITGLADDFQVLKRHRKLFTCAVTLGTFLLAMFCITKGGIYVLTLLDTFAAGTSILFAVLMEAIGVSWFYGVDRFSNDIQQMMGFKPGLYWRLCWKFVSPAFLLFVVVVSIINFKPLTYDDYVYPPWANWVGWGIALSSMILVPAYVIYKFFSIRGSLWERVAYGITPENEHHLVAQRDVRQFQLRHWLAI

[5] = target: Voltage-gated inwardly rectifying potassium channel KCNH2 (Homo sapiens, UniProt Q12809); experiment: Inhibition of human ERG at 10 uM
Chain of Voltage-gated inwardly rectifying potassium channel KCNH2 (Q12809 whole entry): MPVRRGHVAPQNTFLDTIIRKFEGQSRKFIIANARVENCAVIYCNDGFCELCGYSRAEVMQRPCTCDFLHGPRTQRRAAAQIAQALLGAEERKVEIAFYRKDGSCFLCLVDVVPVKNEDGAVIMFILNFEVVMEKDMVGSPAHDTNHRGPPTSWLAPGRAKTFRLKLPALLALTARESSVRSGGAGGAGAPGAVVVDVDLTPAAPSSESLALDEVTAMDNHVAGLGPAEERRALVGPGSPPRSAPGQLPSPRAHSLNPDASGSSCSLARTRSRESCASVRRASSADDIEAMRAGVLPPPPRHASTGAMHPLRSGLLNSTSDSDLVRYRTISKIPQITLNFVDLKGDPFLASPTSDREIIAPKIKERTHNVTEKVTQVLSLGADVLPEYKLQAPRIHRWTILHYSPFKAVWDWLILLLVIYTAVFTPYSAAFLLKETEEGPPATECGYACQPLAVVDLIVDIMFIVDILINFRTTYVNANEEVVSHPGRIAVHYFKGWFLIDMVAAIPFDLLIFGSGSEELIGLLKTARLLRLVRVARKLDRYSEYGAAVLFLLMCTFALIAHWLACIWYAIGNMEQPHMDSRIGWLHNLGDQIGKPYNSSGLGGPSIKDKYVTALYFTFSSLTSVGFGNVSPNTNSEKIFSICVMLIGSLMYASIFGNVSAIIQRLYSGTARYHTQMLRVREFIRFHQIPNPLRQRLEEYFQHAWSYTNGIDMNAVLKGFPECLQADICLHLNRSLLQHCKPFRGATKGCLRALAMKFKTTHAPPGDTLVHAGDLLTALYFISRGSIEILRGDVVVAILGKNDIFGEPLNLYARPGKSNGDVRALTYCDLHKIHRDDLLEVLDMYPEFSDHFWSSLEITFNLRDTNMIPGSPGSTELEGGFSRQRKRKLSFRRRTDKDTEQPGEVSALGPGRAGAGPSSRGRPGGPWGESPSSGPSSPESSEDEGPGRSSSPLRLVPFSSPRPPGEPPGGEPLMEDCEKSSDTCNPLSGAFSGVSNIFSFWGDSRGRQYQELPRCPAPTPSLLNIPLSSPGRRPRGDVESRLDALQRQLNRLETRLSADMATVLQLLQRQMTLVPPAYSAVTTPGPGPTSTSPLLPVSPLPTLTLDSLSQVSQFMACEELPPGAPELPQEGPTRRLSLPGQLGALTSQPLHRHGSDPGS

[6] = target: Sodium-dependent serotonin transporter (Rattus norvegicus, UniProt P31652); experiment: Inhibition of rat SERT-mediated serotonin reuptake
Chain of Sodium-dependent serotonin transporter (P31652 whole entry): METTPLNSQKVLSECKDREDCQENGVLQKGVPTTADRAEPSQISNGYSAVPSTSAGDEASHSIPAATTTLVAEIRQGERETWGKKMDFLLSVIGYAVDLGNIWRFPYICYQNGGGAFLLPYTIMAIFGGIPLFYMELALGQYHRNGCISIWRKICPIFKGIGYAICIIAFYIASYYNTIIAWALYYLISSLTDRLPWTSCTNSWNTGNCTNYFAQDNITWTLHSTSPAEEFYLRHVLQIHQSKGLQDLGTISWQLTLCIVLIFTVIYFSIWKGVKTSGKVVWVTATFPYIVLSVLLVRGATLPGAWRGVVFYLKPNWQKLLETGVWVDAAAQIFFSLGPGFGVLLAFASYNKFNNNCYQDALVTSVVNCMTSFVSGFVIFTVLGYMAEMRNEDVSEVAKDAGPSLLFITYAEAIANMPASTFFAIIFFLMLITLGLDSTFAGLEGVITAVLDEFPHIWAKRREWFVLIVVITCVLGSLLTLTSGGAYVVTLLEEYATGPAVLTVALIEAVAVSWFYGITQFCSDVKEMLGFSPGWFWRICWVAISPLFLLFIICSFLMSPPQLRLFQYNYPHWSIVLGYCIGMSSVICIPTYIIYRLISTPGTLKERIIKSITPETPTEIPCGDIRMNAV

CYP2D6 = CYP2D6 (Homo sapiens, UniProt P10635); experiment: Inhibition of CYP2D6 at 10 uM; format: ADME
Chain of CYP2D6 (P10635 whole entry): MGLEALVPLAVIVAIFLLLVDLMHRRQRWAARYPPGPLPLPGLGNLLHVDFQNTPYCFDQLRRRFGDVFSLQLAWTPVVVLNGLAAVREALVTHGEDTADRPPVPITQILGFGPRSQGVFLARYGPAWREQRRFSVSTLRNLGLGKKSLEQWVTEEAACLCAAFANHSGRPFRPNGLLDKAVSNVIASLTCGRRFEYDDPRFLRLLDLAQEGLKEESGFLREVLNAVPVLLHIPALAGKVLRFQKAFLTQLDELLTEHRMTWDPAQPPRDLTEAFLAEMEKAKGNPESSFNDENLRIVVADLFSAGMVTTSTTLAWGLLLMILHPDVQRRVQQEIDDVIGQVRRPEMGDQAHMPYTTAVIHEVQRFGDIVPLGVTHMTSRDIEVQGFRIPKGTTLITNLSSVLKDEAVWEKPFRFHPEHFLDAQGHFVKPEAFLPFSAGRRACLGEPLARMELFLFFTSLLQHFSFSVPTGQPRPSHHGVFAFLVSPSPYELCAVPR

Salmonella typhimurium = experiment: Mutagenic activity in Salmonella Typhimurium by Mini-Ames test; format: toxicity, organism-based; conditions: salmonella enterica subsp. enterica serovar typhimurium
[7] = Metabolic stability in human liver S9 fraction assessed as compound remaining after 2 hrs; format: ADME, subcellular; conditions: read-out: Stability
[8] = target: T1, Sodium-dependent dopamine transporter; experiment: Inhibition of rat DAT-mediated dopamine reuptake
Cytochrome P450 2C19 = Cytochrome P450 2C19 (Homo sapiens, UniProt P33261); experiment: Inhibition of CYP2C19; format: ADME
Chain of Cytochrome P450 2C19 (P33261 whole entry): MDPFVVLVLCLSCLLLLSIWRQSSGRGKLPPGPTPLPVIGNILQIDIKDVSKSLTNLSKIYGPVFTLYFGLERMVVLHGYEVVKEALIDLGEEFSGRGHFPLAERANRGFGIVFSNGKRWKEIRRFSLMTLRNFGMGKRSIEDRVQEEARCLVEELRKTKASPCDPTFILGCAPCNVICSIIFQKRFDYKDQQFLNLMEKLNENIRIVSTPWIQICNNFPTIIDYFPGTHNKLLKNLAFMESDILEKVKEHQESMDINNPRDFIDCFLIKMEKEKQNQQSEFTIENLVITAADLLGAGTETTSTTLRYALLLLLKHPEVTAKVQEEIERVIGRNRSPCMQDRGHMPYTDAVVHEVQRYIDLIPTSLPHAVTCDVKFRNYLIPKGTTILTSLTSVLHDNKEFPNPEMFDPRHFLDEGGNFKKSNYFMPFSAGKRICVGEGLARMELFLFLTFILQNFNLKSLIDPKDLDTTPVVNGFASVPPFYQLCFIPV

Plasma = experiment: Plasma concentration in human; format: ADME, cell-free

Chain of CYP3A4 (P08684 whole entry): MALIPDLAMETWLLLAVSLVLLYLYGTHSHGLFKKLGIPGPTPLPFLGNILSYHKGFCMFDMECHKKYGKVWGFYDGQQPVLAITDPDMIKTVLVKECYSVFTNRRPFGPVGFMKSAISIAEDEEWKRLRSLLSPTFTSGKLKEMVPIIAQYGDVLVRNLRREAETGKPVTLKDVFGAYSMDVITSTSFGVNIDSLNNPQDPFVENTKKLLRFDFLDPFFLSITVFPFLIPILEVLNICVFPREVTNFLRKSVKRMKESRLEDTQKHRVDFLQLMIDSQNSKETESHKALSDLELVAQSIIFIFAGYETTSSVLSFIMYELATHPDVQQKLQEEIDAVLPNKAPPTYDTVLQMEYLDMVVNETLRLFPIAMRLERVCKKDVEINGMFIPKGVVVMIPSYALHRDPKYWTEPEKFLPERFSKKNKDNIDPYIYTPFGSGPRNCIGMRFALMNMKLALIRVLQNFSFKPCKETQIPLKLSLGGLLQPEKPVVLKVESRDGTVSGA

SMILES | Time (Rattus norvegicus [1]) | also measured
NC(=O)C[S+]([O-])Cc1ccccc1-c1ccccc1 (stereo not drawn) | 119 min | –
NC(=O)C[S+]([O-])Cc1ccccc1-c1ccccc1F (stereo not drawn) | 64 min | –
COc1ccccc1-c1ccccc1C[S+]([O-])CC(N)=O (stereo not drawn) | 86 min | –
NC(=O)C[S+]([O-])Cc1ccccc1-c1ccccc1Cl (stereo not drawn) | 49 min | –
N#Cc1cccc(-c2ccccc2C[S+]([O-])CC(N)=O)c1 (stereo not drawn) | 99 min | –
NC(=O)C[S+]([O-])Cc1ccccc1-c1cccc(C(N)=O)c1 (stereo not drawn) | 62 min | –
NC(=O)C[S+]([O-])Cc1ccccc1-c1cccc(Cl)c1 (stereo not drawn) | 106 min | –
NC(=O)C[S+]([O-])Cc1ccccc1-c1ccc(F)cc1 (stereo not drawn) | 147 min | –
NC(=O)C[S+]([O-])Cc1ccccc1-c1ccc(Br)cc1 (stereo not drawn) | 174 min | –
Cc1ccc(-c2ccccc2C[S+]([O-])CC(N)=O)cc1 (stereo not drawn) | 146 min | –
NC(=O)C[S+]([O-])Cc1ccccc1-c1ccc(OC(F)(F)F)cc1 (stereo not drawn) | 108 min | –
CC(=O)c1ccc(-c2ccccc2C[S+]([O-])CC(N)=O)cc1 (stereo not drawn) | 77 min | –
N#Cc1ccc(-c2ccccc2C[S+]([O-])CC(N)=O)cc1 (stereo not drawn) | 65 min | –
Cc1ccccc1-c1cccc(C[S+]([O-])CC(N)=O)c1 (stereo not drawn) | 117 min | –
NC(=O)C[S+]([O-])Cc1cccc(-c2ccc(Cl)cc2)c1 (stereo not drawn) | 96 min | –
NC(=O)C[S+]([O-])Cc1ccc(-c2ccccc2)cc1 (stereo not drawn) | 100 min | –
NC(=O)C[S+]([O-])Cc1ccc(-c2ccc(Cl)cc2)cc1 (stereo not drawn) | 92 min | –
NC(=O)C[S+]([O-])Cc1ccccc1-c1ccc(Cl)cc1 (racemic) | 176 min | inhibition at 10 µM (CYP3A4): < 10%; IC50 [2]: 0.6 µM; Activity (Rattus norvegicus [3]): Active; solubility [4]: > 100 µg/mL; IC50 (Transporter): 10 µM; inhibition (INH) [5]: Not Active; IC50 [6]: > 300 µM; inhibition at 10 µM (CYP2D6): < 10%; Activity (Salmonella typhimurium): Non-toxic; remaining at 2 h [7]: 94%; IC50 [8]: 0.83 µM; IC50 (Cytochrome P450 2C19): 19 µM
NC(=O)C[S+]([O-])C(c1ccccc1)c1ccccc1 (stereo not drawn) [MODAFINIL] | 117 min | inhibition at 10 µM (CYP3A4): < 10%; concentration (Plasma): > 30 µM; solubility [4]: > 100 µg/mL; inhibition at 10 µM (CYP2D6): < 10%; Activity (Salmonella typhimurium): Non-toxic; remaining at 2 h [7]: 77%; IC50 (Cytochrome P450 2C19): 11 µM
